In patent US8722849B2, “Polypeptides” (Novo Nordisk A/S, priority 2011, dated 2014):
Values after ≈ are worked out from the molar mass of the structure shown. Where two headings read alike, the source gives them in different places. Starred links: 1 amine or outer side, 2 acyl side, 3 side chain; linkers in the order of their positions; H or OH if unused. Positions of bridges follow the written chain, without caps; N, C: chain ends. Residues, ends and D or L forms follow the SMILES beside them. *: point of attachment. C20 diacid = O=C(O)CCCCCCCCCCCCCCCCCCC(=O)*; C18 diacid = O=C(O)CCCCCCCCCCCCCCCCC(=O)*; γGlu = O=C(O)[C@H](CCC(=O)[*:2])N[*:1]; AEEA = NCCOCCOCC(=O)O

Experiments:
[1] = biological target: T1, human amylin receptor (amylin 3(a) receptor: human calcitonin receptor + RAMP-3) (Homo sapiens, UniProt O60896+P30988); assay: Assay (II)a functional CRE-luciferase assay, human amylin receptor; type: cell-based; details: Table 2; BHK amylin 3(a)-receptor/CRE-luc cells
T1 construct: expressed in transfected cells; host or cells: BHK570
T1 sequence (P30988 25-474): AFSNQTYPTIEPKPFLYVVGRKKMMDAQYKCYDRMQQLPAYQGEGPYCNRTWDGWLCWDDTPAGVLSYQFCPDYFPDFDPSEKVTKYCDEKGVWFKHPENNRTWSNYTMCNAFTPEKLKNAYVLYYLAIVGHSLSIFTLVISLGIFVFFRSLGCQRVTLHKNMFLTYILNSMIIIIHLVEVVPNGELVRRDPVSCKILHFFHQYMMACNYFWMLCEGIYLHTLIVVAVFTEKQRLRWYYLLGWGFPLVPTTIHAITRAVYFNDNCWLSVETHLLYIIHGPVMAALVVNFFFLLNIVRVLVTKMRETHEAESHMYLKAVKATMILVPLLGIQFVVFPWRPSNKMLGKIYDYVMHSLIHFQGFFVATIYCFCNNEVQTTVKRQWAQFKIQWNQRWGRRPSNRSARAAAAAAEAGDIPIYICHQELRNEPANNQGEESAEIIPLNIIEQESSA
T1 sequence (O60896 24-148 partner): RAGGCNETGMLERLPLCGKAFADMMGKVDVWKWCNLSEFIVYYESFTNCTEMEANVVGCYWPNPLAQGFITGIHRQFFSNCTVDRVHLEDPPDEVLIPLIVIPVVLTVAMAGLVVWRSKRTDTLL

[2] = biological target: T2, human calcitonin receptor (Homo sapiens, UniProt P30988); assay: Assay (II)a functional CRE-luciferase assay, human calcitonin receptor; type: cell-based
T2 construct: expressed in transfected cells; host or cells: BHK570
T2 sequence (P30988 25-474): T1 sequence (P30988 25-474)

[3] = Assay (III) ThT fibrillation assay for physical stability; type: physicochemical
How it was run: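 Freshly prepared formulations, pH-adjusted, with 1 μM ThT; four or eight replicates incubated at 37 °C under 960 rpm orbital shaking. Fluorescence (ex 444/em 485 nm) read every 20 min; […]. Peptide concentration measured by RP-HPLC before and after the run.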

[4] = Assay (IV) determination of solubility; type: physicochemical
How it was run: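 Solubility is measured across pH 3.0–8.0 by mixing a ~500 nmol/ml aqueous polypeptide stock 1:1 with 100 mM glycylglycine or bistrispropane buffers. Samples stand 18 hours at room temperature, then are centrifuged and the soluble concentration is determined by HPLC.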

[5] = bistrispropane buffer, pH 6, pH 6.0, read-out: Solubility pH 6.0
[6] = bistrispropane buffer, pH 6.5, pH 6.5, read-out: Solubility pH 6.5
[7] = bistrispropane buffer, pH 7, pH 7.0, 18 hours at room temperature, Table 3, read-out: Solubility pH 7.0
[8] = bistrispropane buffer, pH 7, pH 7.0, read-out: Solubility pH 7.0
[9] = bistrispropane buffer, pH 7.5, pH 7.5, read-out: Solubility pH 7.5
[10] = bistrispropane buffer, pH 8, pH 8.0, read-out: Solubility pH 8.0
[11] = glycylglycine buffer, pH 3, pH 3.0, read-out: Solubility pH 3.0
[12] = glycylglycine buffer, pH 4, pH 4.0, 18 hours at room temperature, Table 2, read-out: Solubility pH 4.0
[13] = glycylglycine buffer, pH 4, pH 4.0, read-out: Solubility pH 4.0
[14] = glycylglycine buffer, pH 5, pH 5.0, read-out: Solubility pH 5.0
[15] = Table 7, human calcitonin (CTa) receptor

Row | Structure (SMILES) | EC50 [1] [nM] | EC50 ([2]; Table 11, read-out: CTa receptor human EC50) [nM] | ThT pH 4.0 lag time ([3]; Table 8) [h] | ThT pH 4.0 lag time ([3]; Table 9) [h] | ThT pH 4.0 lag time ([3]; ThT fibrillation assay) [h] | ThT pH 4.0 lag time (h) ([3]; ThT fibrillation assay) | solubility at 18 h [4, 5] [µM] | solubility at 18 h [4, 6] [µM] | solubility at 18 h [4, 7] [µM] | solubility at 18 h ([4]; bistrispropane buffer, pH 7, pH 7.0, Table 8, read-out: Solubility pH 7.0) [µM] | solubility at 18 h ([4]; bistrispropane buffer, pH 7, pH 7.0, Table 9, read-out: Solubility pH 7.0) [µM] | solubility at 18 h [4, 8] [µM] | solubility at 18 h ([4]; bistrispropane buffer, pH 7.5, pH 7.5, Table 9, read-out: Solubility pH 7.5) [µM] | solubility at 18 h [4, 9] [µM] | solubility at 18 h [4, 10] [µM] | solubility at 18 h [4, 11] [µM] | solubility at 18 h [4, 12] [µM] | solubility at 18 h [4, 13] [µM] | solubility at 18 h [4, 14] [µM] | EC50 [2, 15] [nM]
1 | CC[C@H](C)[C@H](NC(=O)[C@@H]1CCCN1C(=O)CNC(=O)[C@H](Cc1ccccc1)NC(=O)[C@H](CCC(N)=O)NC(=O)[C@H](CCC(N)=O)NC(=O)[C@H](CO)NC(=O)[C@H](CO)NC(=O)[C@H](Cc1c[nH]cn1)NC(=O)[C@H](CCCNC(=N)N)NC(=O)[C@H](CC(C)C)NC(=O)[C@H](Cc1ccccc1)NC(=O)[C@H](CCC(=O)O)NC(=O)[C@H](C)NC(=O)[C@H](CC(C)C)NC(=O)[C@H](CCCNC(=N)N)NC(=O)[C@H](CCC(N)=O)NC(=O)[C@@H](NC(=O)[C@H](C)NC(=O)[C@@H]1CSSC[C@H](NC(=O)[C@H](CCC(=O)O)NC(=O)[C@H](CCCNC(=N)N)NC(=O)[C@H](CCC(=O)O)NC(=O)CC[C@H](NC(=O)CCCCCCCCCCCCCCCCCCC(=O)O)C(=O)O)C(=O)N[C@@H](CC(N)=O)C(=O)N[C@@H]([C@@H](C)O)C(=O)N[C@@H](C)C(=O)N[C@@H]([C@@H](C)O)C(=O)N1)[C@@H](C)O)C(=O)N[C@@H](CC(C)C)C(=O)N1CCC[C@H]1C(=O)N1CCC[C@H]1C(=O)N[C@H](C(=O)N[C@@H](CCC(N)=O)C(=O)N[C@H](C(=O)NCC(=O)N[C@@H](CO)C(=O)N[C@@H](CCC(N)=O)C(=O)N[C@H](C(=O)N1CCC[C@H]1C(N)=O)[C@@H](C)O)C(C)C)[C@@H](C)O [Example 164, N-alpha-[(S)-4-Carboxy-4-(19-carboxynonadecanoylamino)butyryl]-Glu-Arg-[Glu1,Glu14,Arg17,Gln21,Gln22,Gln31,Gln35,Pro37]-pramlintide] ({C20 diacid-γGlu}-ERECNTATCATQRLAEFLRHSSQQFGPILPPTQVGSQTP-NH2; disulfide 4-9 (inferred)) | 1.71 | 3.57 | >45 | >45 | >45 | >45 | > 200 | > 200 | > 200 | > 200 | > 200 | > 200 | > 200 | > 200 | > 200 | > 200 | > 200 | > 200 | > 200 | 
2 | CC[C@H](C)[C@H](NC(=O)[C@@H]1CCCN1C(=O)CNC(=O)[C@H](Cc1ccccc1)NC(=O)[C@H](CC(N)=O)NC(=O)[C@H](CC(N)=O)NC(=O)[C@H](CO)NC(=O)[C@H](CO)NC(=O)[C@H](Cc1c[nH]cn1)NC(=O)[C@H](Cc1c[nH]cn1)NC(=O)[C@H](CC(C)C)NC(=O)[C@H](Cc1ccccc1)NC(=O)[C@H](CCC(=O)O)NC(=O)[C@H](C)NC(=O)[C@H](CC(C)C)NC(=O)[C@H](CCCNC(=N)N)NC(=O)[C@H](CCC(N)=O)NC(=O)[C@@H](NC(=O)[C@H](C)NC(=O)[C@@H]1CSSC[C@H](NC(=O)[C@H](Cc2c[nH]cn2)NC(=O)[C@H](Cc2c[nH]cn2)NC(=O)[C@H](Cc2c[nH]cn2)NC(=O)CC[C@H](NC(=O)CCCCCCCCCCCCCCCCCCC(=O)O)C(=O)O)C(=O)N[C@@H](CC(N)=O)C(=O)N[C@@H]([C@@H](C)O)C(=O)N[C@@H](C)C(=O)N[C@@H]([C@@H](C)O)C(=O)N1)[C@@H](C)O)C(=O)N[C@@H](CC(C)C)C(=O)N1CCC[C@H]1C(=O)N[C@@H](Cc1c[nH]cn1)C(=O)N[C@H](C(=O)N[C@@H](CC(N)=O)C(=O)N[C@H](C(=O)NCC(=O)N[C@@H](CO)C(=O)N[C@@H](CC(N)=O)C(=O)N[C@H](C(=O)N[C@@H](Cc1ccc(O)cc1)C(N)=O)[C@@H](C)O)C(C)C)[C@@H](C)O [Example 36, N-alpha-[(S)-4-Carboxy-4-(19-carboxynonadecanoylamino)butyryl]-His-His-[His1,Glu14,His17,His29]-pramlintide] ({C20 diacid-γGlu}-HHHCNTATCATQRLAEFLHHSSNNFGPILPHTNVGSNTY-NH2; disulfide 4-9 (inferred)) | 0.167 |  |  |  |  | 1.3 | > 200 | 14 (≈ 66.9 µg/mL) |  |  |  |  |  | 2 (≈ 9.56 µg/mL) | 60 (≈ 287 µg/mL) | > 200 | > 200 | > 200 | > 200 | 0.191
3 | CC[C@H](C)[C@H](NC(=O)[C@@H]1CCCN1C(=O)CNC(=O)[C@H](Cc1ccccc1)NC(=O)[C@H](CC(N)=O)NC(=O)[C@H](CC(N)=O)NC(=O)[C@H](CO)NC(=O)[C@H](CO)NC(=O)[C@H](Cc1c[nH]cn1)NC(=O)[C@H](Cc1c[nH]cn1)NC(=O)[C@H](CC(C)C)NC(=O)[C@H](Cc1ccccc1)NC(=O)[C@H](CCC(=O)O)NC(=O)[C@H](C)NC(=O)[C@H](CC(C)C)NC(=O)[C@H](CCCNC(=N)N)NC(=O)[C@H](CCC(N)=O)NC(=O)[C@@H](NC(=O)[C@H](C)NC(=O)[C@@H]1CSSC[C@H](NC(=O)[C@H](CCC(=O)O)NC(=O)COCCOCCNC(=O)COCCOCCNC(=O)CC[C@H](NC(=O)CCCCCCCCCCCCCCCCC(=O)O)C(=O)O)C(=O)N[C@@H](CC(N)=O)C(=O)N[C@@H]([C@@H](C)O)C(=O)N[C@@H](C)C(=O)N[C@@H]([C@@H](C)O)C(=O)N1)[C@@H](C)O)C(=O)N[C@@H](CC(C)C)C(=O)N1CCC[C@H]1C(=O)N1CCC[C@H]1C(=O)N[C@H](C(=O)N[C@@H](CC(N)=O)C(=O)N[C@H](C(=O)NCC(=O)N[C@@H](CO)C(=O)N[C@@H](CC(N)=O)C(=O)N[C@H](C(=O)N1CCC[C@H]1C(N)=O)[C@@H](C)O)C(C)C)[C@@H](C)O [Example 82, N-alpha-[2-(2-{2-[2-(2-{2-[(S)-4-Carboxy-4-(17-carboxyheptadecanoylamino)butyrylamino]ethoxy}ethoxy)acetylamino]ethoxy}ethoxy)acetyl]-[Glu1,Glu14,His17,Pro37]-pramlintide] ({C18 diacid-γGlu-AEEA-AEEA}-ECNTATCATQRLAEFLHHSSNNFGPILPPTNVGSNTP-NH2; disulfide 2-7 (inferred); C-terminus assumed) | 0.108 |  |  |  |  | 14 | > 200 | > 200 | > 200 |  |  | > 200 |  | > 200 | > 200 | > 200 | > 200 | > 200 | > 200 | 0.288
4 | CC[C@H](C)[C@H](NC(=O)[C@@H]1CCCN1C(=O)CNC(=O)[C@H](Cc1ccccc1)NC(=O)[C@H](CC(N)=O)NC(=O)[C@H](CCC(N)=O)NC(=O)[C@H](CO)NC(=O)[C@H](CO)NC(=O)[C@H](Cc1c[nH]cn1)NC(=O)[C@@H](NC(=O)[C@H](CC(C)C)NC(=O)[C@H](Cc1ccccc1)NC(=O)[C@H](CCC(=O)O)NC(=O)[C@H](C)NC(=O)[C@H](CC(C)C)NC(=O)[C@H](CCCNC(=N)N)NC(=O)[C@H](CCC(N)=O)NC(=O)[C@@H](NC(=O)[C@H](C)NC(=O)[C@@H]1CSSC[C@H](NC(=O)[C@H](CCC(=O)O)NC(=O)CC[C@H](NC(=O)CCCCCCCCCCCCCCCCCCC(=O)O)C(=O)O)C(=O)N[C@@H](CC(N)=O)C(=O)N[C@@H]([C@@H](C)O)C(=O)N[C@@H](C)C(=O)N[C@@H]([C@@H](C)O)C(=O)N1)[C@@H](C)O)C(C)C)C(=O)N[C@@H](CC(C)C)C(=O)N1CCC[C@H]1C(=O)N1CCC[C@H]1C(=O)N[C@H](C(=O)N[C@@H](CC(N)=O)C(=O)N[C@H](C(=O)NCC(=O)N[C@@H](CO)C(=O)N[C@@H](CCC(N)=O)C(=O)N[C@H](C(=O)N1CCC[C@H]1C(N)=O)[C@@H](C)O)C(C)C)[C@@H](C)O [Example 138, N-alpha-[(S)-4-Carboxy-4-(19-carboxynonadecanoylamino)butyryl]-[Glu1,Glu14,Gln21,Gln35,Pro37]-pramlintide] ({C20 diacid-γGlu}-ECNTATCATQRLAEFLVHSSQNFGPILPPTNVGSQTP-NH2; disulfide 2-7) | 1.51 |  |  |  |  | 1.3 | > 200 | > 200 | > 200 |  |  | > 200 |  | > 200 | > 200 | > 200 | > 200 | > 200 | > 200 | 0.496
